The record followed here is patent publication EP1801112A1, “Bicyclic pyrimidines and bicyclic 3,4-dihydropyrimidines as inhibitors of cellular proliferation” (Warner-Lambert Company LLC, priority 1998, dated 1999).

Assay [1] addresses T1, PDGF-β receptor tyrosine kinase (Mus musculus, UniProt P05622).
T1 construct: amplify a fragment of DNA that codes for the intracellular tyrosine kinase domain; made in house; host or cells: SF9 insect cells (baculovirus); crude cell lysate used
As to the kind of experiment: PDGF Receptor Tyrosine Kinase Assay. The assay is classed as biochemical. To be noted: glutamate-tyrosine co-polymer substrate, 50 µM ATP. The text has this:
PDGF and FGF Receptor Tyrosine Kinase Assays
Full-length cDNAs for the mouse PDGF-β and human FGF-1 (flg) receptor tyrosine kinases were obtained from J. Escobedo and prepared as described in J. Biol. Chem., 1991;262:1482-1487. PCR primers were designed to amplify a fragment of DNA that codes for the intracellular tyrosine kinase domain. The fragment was inserted into a baculovirus vector, cotransfected with AcMNPV DNA, and the recombinant virus isolated. SF9 insect cells were infected with the virus to overexpress the protein, and the cell lysate was used for the assay. Assays were performed in 96-well plates (100 µL/incubation/well), and conditions were optimized to measure the incorporation of ^32P from γ^32P-ATP into a glutamate-tyrosine co-polymer substrate. Briefly, to each well was added 82.5 µL of incubation buffer containing 25 mM Hepes (pH 7.0), 150 mM NaCl, 0.1% Triton X-100, 0.2 mM PMSF, 0.2 mM Na3VO4, 10 mM MnCl2, and 750 µg/mL of Poly (4:1) glutamate-tyrosine followed by […] of inhibitor and 5 µL of enzyme lysate (7.5 µg/µL FGF-TK or 6.0 µg/µL PDGF-TK) to initiate the reaction. Following a 10 minute incubation at 25°C, […] of γ^32P-ATP (0.4 µCi plus 50 µM ATP) was added to each well, and samples were incubated for an additional 10 minutes at 25°C. The reaction was terminated by the addition of 100 µL of 30% trichloroacetic acid (TCA) containing 20 mM sodium pyrophosphate and precipitation of material onto glass fiber mats (Wallac). Filters were washed three times with 15% TCA containing 100 mM sodium pyrophosphate, and the radioactivity retained on the filters counted in a Wallac 1250 Betaplate reader. Nonspecific activity was defined as radioactivity retained on the filters following incubation of samples with buffer alone (no enzyme). Specific enzymatic activity (enzyme plus buffer) was defined as total activity minus nonspecific activity. […]

In assay [2] the target is T2, FGF-1 (flg) receptor tyrosine kinase (Homo sapiens, UniProt P11362).
T2 construct: amplify a fragment of DNA that codes for the intracellular tyrosine kinase domain; made in house; host or cells: SF9 insect cells (baculovirus); crude cell lysate used
In words: FGF Receptor Tyrosine Kinase Assay. To be noted: glutamate-tyrosine co-polymer substrate, 50 µM ATP. In kind it is biochemical.

Assay [3] deals with human umbilical vein endothelial cells. In words: Human Umbilical Vein Endothelial Cell (HUVEC) Proliferation Assay. The assay is classed as cell-based. Conditions: 96 h, four days incubation, Sulphorhodamine B staining. The protocol:
The compounds of Formula I are useful for treating cell proliferative disorders concerning angiogenesis and have been evaluated in a human umbilical vein endothelial cell in vitro assay. The assay described below is used to determine the anti-proliferative effects of the invention compounds on human umbilical vein endothelial cells, and the results are shown in Table 7.
Human Umbilical Vein Endothelial Cell (HUVEC) Proliferation Assay
Ninety-six well tissue culture plates are seeded with 100 µL of cells in all wells of rows A->G with row H remaining empty as a blank. HUVEC (Clonetics, San Diego, CA) are grown in endothelial growth medium (EGM media, Clonetics), containing 2% fetal bovine serum. The cell seed density for HUVEC cells is 20,000 per mL. C6 cells (ATCC Cat. No. CCL-107) are seeded at 6000 per mL in F10 medium (nutrient mixture Hemes) supplemented with 15% horse serum, 2.5% fetal bovine serum, and 6.0 mL 200 mM Glutamine per 600 mL medium. A90 cells (Suny, Buffalo, NY) are also seeded at 6000 per mL, but they are grown in RPMI 1640 (Roswell Park Memorial Institute) plus 10% fetal bovine serum. Unless noted otherwise, tissue culture media and components are from GIBCO. The cells are allowed to incubate at 37°C, 5% CO2, and 100% relative humidity for 16-24 hours.
Invention compounds are prepared by dissolving them in DMSO at a concentration of 5 mM, followed by dilution to 50 µM in EGM media. One hundred microliters of the compounds are applied to duplicate wells in column 1 of the previously prepared cell plates. Column 1 row H receives 100 µL of EGM media. The compounds in column 1 are diluted across the plates using serial twofold dilutions.
The plates are incubated as above for an additional four days before being stained with Sulphorhodamine B. Staining is performed as follows: The media is removed from the plates, and the cells are fixed using 10% trichloroacetic acid for 30 minutes at 4°C. Following fixation, the plates are washed five times with distilled water after which 100 µL of Sulphorhodamine B is added to each well. Sulphorhodamine B is dissolved in 1% acetic acid to a concentration of .075%. Following staining, excess stain is removed from the wells, and the plates are washed four times with 1% acetic acid. The plates are allowed to air dry before the bound dye is solubilized in 100 µL of 10 mM unbuffered TRIS base. Absorbance is measured on a 96 well plate reader at […] using a reference filter wavelength of 630 nm. […] Sulphorhodamine B and TRIS are from Sigma Chemical Company. Acetic acid and trichloroacetic acid are from Mallinckrodt AR.

T2 sequence (P11362 478-767 limits assumed): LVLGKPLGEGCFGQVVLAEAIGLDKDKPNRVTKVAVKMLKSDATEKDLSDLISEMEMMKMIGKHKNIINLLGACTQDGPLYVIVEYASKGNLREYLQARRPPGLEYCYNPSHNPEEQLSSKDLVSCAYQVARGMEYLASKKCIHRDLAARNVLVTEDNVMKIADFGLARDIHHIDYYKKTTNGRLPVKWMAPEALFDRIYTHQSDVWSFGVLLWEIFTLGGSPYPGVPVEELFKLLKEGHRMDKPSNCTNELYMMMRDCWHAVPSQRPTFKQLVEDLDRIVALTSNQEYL
T1 sequence (P05622 599-961 limits assumed): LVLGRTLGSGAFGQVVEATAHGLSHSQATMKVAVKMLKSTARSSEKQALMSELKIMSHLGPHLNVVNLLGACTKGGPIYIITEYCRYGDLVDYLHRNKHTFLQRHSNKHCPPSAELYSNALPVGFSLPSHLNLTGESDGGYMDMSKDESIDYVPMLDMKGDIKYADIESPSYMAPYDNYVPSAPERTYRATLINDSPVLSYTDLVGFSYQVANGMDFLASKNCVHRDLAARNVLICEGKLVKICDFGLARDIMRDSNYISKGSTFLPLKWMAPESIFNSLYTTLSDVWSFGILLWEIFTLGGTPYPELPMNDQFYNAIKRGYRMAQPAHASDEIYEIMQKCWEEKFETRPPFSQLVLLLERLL

By IC50 is commonly meant the point on the concentration scale where inhibition reaches its midpoint. Read a high IC50 as weaker potency. As to `CCN(CC)CCCCNc1ncc2c(n1)N(CC)C(=O)N(c1cc(OC)cc(OC)c1)C2` [Example 53, 7-(4-Diethylamino-butylamino)-3-(3,5-dimethoxy-phenyl)-1-ethyl-3,4-dihydro-pyrimido[4,5-d]pyrimidin-2(1H)-one], the IC50 in assay [1] is 5 µM; in assay [2] it was 0.06 µM; in assay [3], 192 nM.
